Data reported in patent publication US8071600B2, “Derivatives of 4-piperazin-1-yl-4-benzo[B]thiophene suitable for the treatment of CNS disorders” (Otsuka Pharmaceutical Co., Ltd., priority 2005, dated 2011).

Tests used:
Dopamine D2 receptor = molecular target: T1, Dopamine D2 receptor (Rattus norvegicus, UniProt P61169); experiment: Dopamine D2 receptor binding assay ([3H]-raclopride); details: Dopamine D2 receptor binding test, rat corpus striatum membrane, Ki calculated from IC50 by Cheng-Prussoff formula
T1 construct: from tissue; host or cells: Wistar rat brain, corpus striatum membranes
How it was run: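 Wistar male rat striatal membranes incubated with [3H]-raclopride (final 1 to 2 nM) in 50 mM Tris-HCl with NaCl, KCl, CaCl2, MgCl2, pH 7.4, 1% DMSO, 1 h at room temperature; filtration and scintillation counting. Nonspecific binding with 10 μM (+)-butaclamol; IC50 converted to Ki by Cheng-Prussoff.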

[1] = molecular target: T2, Serotonin 5-HT2A receptor (Rattus norvegicus, UniProt P14842); experiment: Serotonin 5-HT2A receptor binding assay ([3H]-Ketanserin); details: Serotonin 5-HT2A receptor binding test, rat frontal cortex membrane, Ki calculated from IC50 by Cheng-Prussoff formula
T2 construct: from tissue; host or cells: Wistar rat brain, frontal cortex membranes
How it was run: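 Rat frontal cortex membranes incubated with [3H]-ketanserin (final 1 to 3 nM) in 50 mM Tris-HCl pH 7.4, 1% DMSO, 37° C. for 20 minutes; bound radioactivity counted after filtration.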

[2] = system: serotonin (5-HT) uptake by rat brain synaptosome; experiment: Serotonin (5-HT) uptake inhibitory activity by rat brain synaptosome; type: biochemical; details: test compound 300 nM, tritium labeled 5-HT 8 nM, 10 minutes uptake at 37° C.
Method: Measurement of serotonin (5-HT) uptake inhibitory activity of a test compound by rat brain synaptosome
Wistar male rats were decapitated, the brain was retrieved and frontal cortex was dissected out, and it was homogenized in 0.32 M sucrose solution of a weight 20 times of the weight of the tissue using a Potter type homogenizer. The homogenate was centrifuged at 4° C., 1,000×g for 10 minutes, the obtained supernatant was further centrifuged at 4° C., 20,000×g for 20 minutes, and the pellet was suspended in an incubation buffer (20 mM Hepes buffer (pH 7.4) containing 10 mM glucose, 145 mM sodium chloride, 4.5 mM potassium chloride, 1.2 mM magnesium chloride, 1.5 mM calcium chloride), which was used as crude synaptosome fraction.
5-HT uptake reaction was performed in a volume of 200 μl using a 96-well round bottom plate and pargyline (final concentration 10 μM) and sodium ascorbate (final concentration 0.2 mg/ml) were contained in the incubation buffer upon reaction and used.
Incubation buffer (total counting), non-labeled 5-HT (final concentration 10 μM, non-specific counting) and the diluted test compound (final concentration 300 nM) were added to each well. One-tenth quantity of the final volume of the synaptosome fraction was added and after preincubated at 37° C. for 10 minutes, tritium labeled 5-HT solution (final concentration 8 nM) was added and uptake reaction was started at 37° C. The uptake time was 10 minutes and the reaction was terminated by vacuum filtration through a 96-well fiber glass filter paper plate, and after the filter paper was washed with cold normal saline, it was dried enough and Microscint0 (Perkin-Elmer) was added to the filter and remaining radioactivity on the filter was measured.
Serotonin uptake inhibitory activity (%) was calculated from the radioactivity of total counting as 100%, of non-specific counting as 0%, and of counting obtained with test compound. % of inhibition of 5-HT(%)=100−[(Count obtained with test compound−Nonspecific count (0% Uptake))/(Total count (100% Uptake)−Nonspecific count (0% Uptake))]×100 The results are shown in the next Table 314.

[3] = molecular target: Human recombinant dopamine D2 receptor (Homo sapiens, UniProt P14416); details: forskolin-stimulated D2 receptor expressing CHO cells; well without test compound = 100%
Method: Partial agonistic activity on dopamine D2 receptor using D2 receptor expression cells
Partial agonistic activity on dopamine D2 receptor was evaluated by quantitatively determining cyclic AMP production inhibitory effect of a test compound in dopamine D2 receptor expression cells in which adenosine 3′,5′-cyclic monophosphate (cyclic AMP) production was induced by forskolin stimulation.
Human recombinant dopamine D2 receptor expressing Chinese hamster ovary/DHFR(−) cells were cultured in a culture medium (Iscove's Modified Dulbecco's Medium (IMDM culture medium), 10% fetal bovine serum, 50 I.U./ml penicillin, 50 μg/ml streptomycin, 200 μg/ml geneticin, 0.1 mM sodium hypoxanthine, 16 μM thymidine) at 37° C. and 5% carbon dioxide condition. Cells were seeded at 10^4 cells/well on a 96-well microtiter plate coated with poly-L-lysine and grown under the same condition for 2 days. Each well was washed with 100 μl of a culture medium (IMDM culture medium, 0.1 mM sodium hypoxanthine, 16 μM thymidine).

T1 sequence (P61169 whole entry): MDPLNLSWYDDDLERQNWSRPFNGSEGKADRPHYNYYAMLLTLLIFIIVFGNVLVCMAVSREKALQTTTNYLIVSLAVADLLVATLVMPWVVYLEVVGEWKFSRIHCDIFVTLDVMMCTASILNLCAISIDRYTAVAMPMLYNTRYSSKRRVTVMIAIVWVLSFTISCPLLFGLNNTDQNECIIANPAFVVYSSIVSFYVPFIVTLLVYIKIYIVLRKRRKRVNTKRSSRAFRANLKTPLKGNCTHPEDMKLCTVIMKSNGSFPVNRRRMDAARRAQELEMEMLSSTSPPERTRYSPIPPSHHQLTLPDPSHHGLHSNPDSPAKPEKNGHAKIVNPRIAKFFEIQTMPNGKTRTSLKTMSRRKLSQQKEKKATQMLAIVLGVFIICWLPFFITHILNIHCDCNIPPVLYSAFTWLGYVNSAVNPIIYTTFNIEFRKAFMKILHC
T2 sequence (P14842 whole entry): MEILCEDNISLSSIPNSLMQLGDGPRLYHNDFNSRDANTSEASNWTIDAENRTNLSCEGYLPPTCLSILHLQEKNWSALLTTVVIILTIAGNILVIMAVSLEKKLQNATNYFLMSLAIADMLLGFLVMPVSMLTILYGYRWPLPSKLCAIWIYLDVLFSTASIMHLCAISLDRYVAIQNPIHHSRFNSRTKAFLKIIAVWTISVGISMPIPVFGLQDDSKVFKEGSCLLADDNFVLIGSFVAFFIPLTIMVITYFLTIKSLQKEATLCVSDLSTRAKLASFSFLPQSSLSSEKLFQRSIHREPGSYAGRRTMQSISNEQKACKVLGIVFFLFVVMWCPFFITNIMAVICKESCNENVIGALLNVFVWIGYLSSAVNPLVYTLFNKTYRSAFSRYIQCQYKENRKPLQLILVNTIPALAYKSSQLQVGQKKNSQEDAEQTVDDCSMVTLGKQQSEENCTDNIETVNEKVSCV
Human recombinant dopamine D2 receptor, sequence (P14416 whole entry): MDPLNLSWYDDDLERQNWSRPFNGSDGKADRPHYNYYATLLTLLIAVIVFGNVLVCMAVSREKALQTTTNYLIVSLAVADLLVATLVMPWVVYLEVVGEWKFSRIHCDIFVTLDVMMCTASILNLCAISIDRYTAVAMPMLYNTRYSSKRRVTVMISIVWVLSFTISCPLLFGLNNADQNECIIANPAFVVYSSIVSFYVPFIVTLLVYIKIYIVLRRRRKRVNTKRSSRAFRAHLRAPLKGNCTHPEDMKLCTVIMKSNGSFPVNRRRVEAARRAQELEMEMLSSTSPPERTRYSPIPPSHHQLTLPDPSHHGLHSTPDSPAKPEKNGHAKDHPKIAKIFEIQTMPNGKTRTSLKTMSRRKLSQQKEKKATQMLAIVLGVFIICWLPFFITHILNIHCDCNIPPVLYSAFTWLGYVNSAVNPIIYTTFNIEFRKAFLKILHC

Row | quantity of cyclic AMP suppressed to, as the maximum activity [3] | SMILES | Ki (Dopamine D2 receptor) | melting point | Ki [1] | Serotonin uptake inhibitory ratio (%) (300 nM) [2]
1 |  | CNc1cc(C)c(OCCCN2CCN(c3cccc4sccc34)CC2)c(OC)c1.Cl [Example 11, N-methyl-4-[3-(4-benzo[b]thiophen-4-yl-piperazin-1-yl)propoxy]-3-methoxy-5-methylaniline hydrochloride] | 0.2 nM | 239.5 to 244 °C (dec.) | 4.4 nM | 95.2%
2 |  | COc1cc(N2CCN(C(C)=O)CC2)cc(C)c1OCCCN1CCN(c2cccc3sccc23)CC1 [Example 1083] | 0.3 nM |  | 1.5 nM | 96.3%
3 |  | COC(=O)N1CCN(c2cc(C)c(OCCCN3CCN(c4cccc5sccc45)CC3)c(OC)c2)C(=O)C1 [Example 1080] | 0.6 nM |  | 3.4 nM | 95.6%
4 |  | COc1cc(N2CCCCC2)cc(C)c1OCCCN1CCN(c2cccc3sccc23)CC1 [Example 1089] | 1 nM |  | 13.9 nM | 85.0%
5 |  | CN(C)c1cc(OCCCCN2CCN(c3cccc4sccc34)CC2)n(C)n1 [Example 1138] | 1.4 nM |  | 19.7 nM | 67.2%
6 |  | COc1cc(NC(=O)CN)cc(C)c1OCCCN1CCN(c2cccc3sccc23)CC1 [Example 1060] | 0.1 nM |  | 1.2 nM | 97.5%
7 |  | COc1cc(C(=O)NCC(OC)OC)cc(C)c1OCCCN1CCN(c2cccc3sccc23)CC1 [Example 802] | 0.6 nM |  | 1.4 nM | 96.6%
8 |  | COc1cc(N(C)C)cc(C)c1OCCCN1CCN(c2cccc3sccc23)CC1.Cl [Example 15, 4-[3-(4-benzo[b]thiophen-4-yl-piperazin-1-yl)propoxy]-N,N-dimethyl-3-methoxy-5-methylaniline hydrochloride] | 0.4 nM | 234.5 to 240.5 °C (dec.) | 5.9 nM | 95.3%
9 |  | COc1cc(N2CCN(C(C)=O)CC2=O)cc(C)c1OCCCN1CCN(c2cccc3sccc23)CC1 [Example 1079] | 0.4 nM |  | 2.8 nM | 82.3%
10 |  | CN(C)C(=O)N1CCC(OCCCN2CCN(c3cccc4sccc34)CC2)CC1 [Example 1110] | 1.2 nM |  | 4.9 nM | 38.5%
11 |  | COc1cc(N2CCCC2)cc(C)c1OCCCN1CCN(c2cccc3sccc23)CC1 [Example 1076] | 1.2 nM |  | 12.4 nM | 87.8%
12 |  | COc1cc(N2CCOC2=O)cc(CO)c1OCCCN1CCN(c2cccc3sccc23)CC1 [Example 1071] | 0.1 nM |  | 1.3 nM | 94.4%
13 |  | COC(=O)N1CCN(c2cc(CO)c(OCCCN3CCN(c4cccc5sccc45)CC3)c(OC)c2)CC1 [Example 1087] | 0.3 nM | 128 to 130 °C | 2.6 nM | 97.1%
14 |  | COc1cc(C(N)=O)ccc1OCCCN1CCN(c2cccc3sccc23)CC1 [Example 190] | 1.2 nM | 162 to 163.5 °C | 0.6 nM | 
15 |  | COc1cc(NC(=O)CNC(C)=O)cc(C)c1OCCCN1CCN(c2cccc3sccc23)CC1 [Example 1061] | 0.1 nM | 167.5 to 170.5 °C | 1.2 nM | 97.5%
16 |  | CNC(=O)c1ccc(OCCCCN2CCN(c3cccc4sccc34)CC2)cc1 [Example 170] | 1 nM | 154 to 156 °C | 3.3 nM | 
17 |  | COC(=O)N1CCN(c2cc(C=O)c(OCCCN3CCN(c4cccc5sccc45)CC3)c(OC)c2)CC1 [Example 1086] | 1 nM |  | 5.8 nM | 98.6%
18 |  | CC(=O)Nc1cc(OCCCN2CCN(c3cccc4sccc34)CC2)n(C)n1 [Example 1106] | 1 nM |  | 7.1 nM | 69.9%
19 | about 10% | NCCc1ccc(O)c(O)c1 [dopamine] |  |  |  | 
20 |  | CN(C)C(=O)c1csc(OCCCN2CCN(c3cccc4sccc34)CC2)n1 [Example 1113] | 0.7 nM |  | 5 nM | 59.3%
21 |  | CNC(=O)c1cnc(OCCCN2CCN(c3cccc4sccc34)CC2)cn1 [Example 61] | 5 nM | 116.5 to 118 °C | 4.9 nM | 
22 |  | COc1cc(C(N)=O)cc(OC)c1OCCCN1CCN(c2cccc3sccc23)CC1 [Example 243] | 0.2 nM | 147.5 to 148 °C | 0.5 nM | 
23 |  | COc1cc(NC(=O)CNC(=O)OC(C)(C)C)cc(C)c1OCCCN1CCN(c2cccc3sccc23)CC1 [Example 1059] | 0.4 nM | 140.5 to 142.5 °C | 3.8 nM | 97.2%
24 |  | CNC(=O)c1cc(OCCCN2CCN(c3cccc4sccc34)CC2)n(C)n1.Cl [Example 3, N-methyl-5-[3-(4-benzo[b]thiophen-4-yl-piperazin-1-yl)propoxy]-1-methyl-1H-pyrazole-3-carboxamide hydrochloride] | 1.5 nM | 228 to 232.5 °C (dec.) | 6 nM | 
